In ChEMBL document CHEMBL5724914, “Linking interpersonal differences in gut microbiota composition and drug biotransformation activity” (2024):

Tests used:
[1] = human gut metagenome, 24 h, 2 µM
[2] = human gut metagenome, 24 h, 2 µM; remark: listed apart in the source
[3] = The drug is tested on WLS-073 corresponding to human gut metagenome with ENA study accession number: PRJEB37062 and ENA sample accession number: ERS12561749 for biotransformation under anaerobic condition. The drug concentrations were measured over 9 timepoints collected between 0 and 24 hours of incubation by liquid-chromatography-coupled mass spectrometry (LC–MS); conditions: 2 µM
[4] = The drug is tested on Z-002 corresponding to rabbit gut metagenome with ENA study accession number: PRJEB37062 and ENA sample accession number: ERS12561802 for biotransformation under anaerobic condition. The drug concentrations were measured over 9 timepoints collected between 0 and 24 hours of incubation by liquid-chromatography-coupled mass spectrometry (LC–MS); conditions: 2 µM
[5] = human gut metagenome, 24 h, 2 µM; remark: listed apart in the source
[6] = The drug is tested on WLS-370 corresponding to human gut metagenome with ENA study accession number: PRJEB37062 and ENA sample accession number: ERS12561793 for biotransformation under anaerobic condition. The drug concentrations were measured over 9 timepoints collected between 0 and 24 hours of incubation by liquid-chromatography-coupled mass spectrometry (LC–MS); conditions: 2 µM
[7] = The drug is tested on Z-009 corresponding to pig gut metagenome with ENA study accession number: PRJEB37062 and ENA sample accession number: ERS12561809 for biotransformation under anaerobic condition. The drug concentrations were measured over 9 timepoints collected between 0 and 24 hours of incubation by liquid-chromatography-coupled mass spectrometry (LC–MS); conditions: 2 µM
[8] = The drug is tested on Z-003 corresponding to pig gut metagenome with ENA study accession number: PRJEB37062 and ENA sample accession number: ERS12561803 for biotransformation under anaerobic condition. The drug concentrations were measured over 9 timepoints collected between 0 and 24 hours of incubation by liquid-chromatography-coupled mass spectrometry (LC–MS); conditions: 2 µM
[9] = The drug is tested on WLS-038 corresponding to human gut metagenome with ENA study accession number: PRJEB37062 and ENA sample accession number: ERS12561745 for biotransformation under anaerobic condition. The drug concentrations were measured over 9 timepoints collected between 0 and 24 hours of incubation by liquid-chromatography-coupled mass spectrometry (LC–MS); conditions: 2 µM
Further: call rule not given here.

Structure (SMILES)	Bacterial Biotransformation [1]	Bacterial Biotransformation [2]	Bacterial Biotransformation [3]	Bacterial Biotransformation [4]	Bacterial Biotransformation [5]	Bacterial Biotransformation [6]	Bacterial Biotransformation [7]	Bacterial Biotransformation [8]	Bacterial Biotransformation [9]
Nc1nc2ccc(OC(F)(F)F)cc2s1 [RILUZOLE]	Compound metabolized	Compound metabolized	Compound metabolized	Compound metabolized	Compound metabolized	Compound metabolized	Compound metabolized	Compound metabolized	Compound metabolized
CC(C)c1nc(CN(C)C(=O)N[C@H](C(=O)N[C@@H](Cc2ccccc2)C[C@H](O)[C@H](Cc2ccccc2)NC(=O)OCc2cncs2)C(C)C)cs1 [RITONAVIR]	Compound metabolized	Compound NOT metabolized	Compound metabolized	Compound metabolized	Compound metabolized	Compound metabolized	Compound metabolized	Compound metabolized	Compound metabolized
CC(C)NCC(O)c1ccc(NS(C)(=O)=O)cc1 (centres undefined) [SOTALOL]	Compound NOT metabolized	Compound NOT metabolized	Compound NOT metabolized	Compound NOT metabolized	Compound NOT metabolized	Compound NOT metabolized	Compound NOT metabolized	Compound NOT metabolized	Compound NOT metabolized
CCN1CCCC1CNC(=O)c1cc(S(N)(=O)=O)ccc1OC (centres undefined) [SULPIRIDE]	Compound metabolized	Compound NOT metabolized	Compound NOT metabolized	Compound metabolized	Compound NOT metabolized	Compound NOT metabolized	Compound metabolized	Compound metabolized	Compound NOT metabolized
CNS(=O)(=O)Cc1ccc2[nH]cc(CCN(C)C)c2c1.O=C(O)CCC(=O)O [SUMATRIPTAN SUCCINATE]	Compound NOT metabolized	Compound NOT metabolized	Compound NOT metabolized	Compound metabolized	Compound metabolized	Compound NOT metabolized	Compound NOT metabolized	Compound metabolized	Compound NOT metabolized
Nc1c2c(nc3ccccc13)CCCC2 [TACRINE]	Compound NOT metabolized	Compound NOT metabolized	Compound NOT metabolized	Compound metabolized	Compound metabolized	Compound NOT metabolized	Compound NOT metabolized	Compound NOT metabolized	Compound NOT metabolized
Cc1ccc(S(=O)(=O)NC(=O)NN2CCCCCC2)cc1 [TOLAZAMIDE]	Compound metabolized	Compound metabolized	Compound metabolized	Compound metabolized	Compound metabolized	Compound metabolized	Compound metabolized	Compound metabolized	Compound metabolized
CCOC(=O)[C@H](CCc1ccccc1)N[C@@H](C)C(=O)N1[C@H](C(=O)O)C[C@H]2CCCC[C@@H]21 [TRANDOLAPRIL]	Compound metabolized	Compound metabolized	Compound metabolized	Compound metabolized	Compound metabolized	Compound NOT metabolized	Compound metabolized	Compound metabolized	Compound metabolized
CC(CN(C)C)CN1c2ccccc2CCc2ccccc21.O=C(O)/C=C\C(=O)O (centres undefined) [TRIMIPRAMINE MALEATE]	Compound metabolized	Compound metabolized	Compound NOT metabolized	Compound NOT metabolized	Compound metabolized	Compound NOT metabolized	Compound NOT metabolized	Compound metabolized	Compound NOT metabolized
CC(=O)CC(c1ccccc1)c1c(O)c2ccccc2oc1=O (centres undefined) [WARFARIN]	Compound metabolized	Compound metabolized	Compound NOT metabolized	Compound metabolized	Compound metabolized	Compound metabolized	Compound metabolized	Compound metabolized	Compound NOT metabolized
Cc1ccc(-c2nc3ccc(C)cn3c2CC(=O)N(C)C)cc1 [ZOLPIDEM]	Compound NOT metabolized	Compound NOT metabolized	Compound NOT metabolized	Compound metabolized	Compound metabolized	Compound NOT metabolized	Compound metabolized	Compound metabolized	Compound NOT metabolized
